Literature values as cited in patent publication US20230414496A1, “BIODEGRADABLE POLYMER-NANOPARTICLE BASED IMPLANTS FOR OCULAR DRUG DELIVERY” (priority 2020, published 2023).
Where two headings read alike, the source gives them in different places.

Columns and labels:
[1] = 400 μg MTX intravitreal injection
[2] = 400 μg MTX intravitreal injection, pre-clinical study; read-out: peak MTX concentration (Cmax-MTX)

total duration of MTX release ([1]; clinical study and pre-clinical study): 2 to 6 days
Cmax ([1]; clinical study, read-out: peak MTX concentration (Cmax-MTX)): 360 µM
Cmax [2]: 400 µM
Structure (SMILES): CN(Cc1cnc2nc(N)nc(N)c2n1)c1ccc(C(=O)N[C@@H](CCC(=O)O)C(=O)O)cc1 [methotrexate]
